Legend:
[1] = molecular target: T1, GlyT1 transporter (Rattus norvegicus, UniProt P28572); assay: Autoradiographic studies in rat brain sections; assay type: binding; details: for distribution of the binding sites in rat brain sections: radiotracer 1 nM, 60 min, 37° C., high densities in thalamus, brainstem, pons, medulla oblungata, cerebellum, lower in striatum, cortex, hippocampus
T1 construct: Ten μm-thick sagittal sections were cut in a Cryostat and thaw-mounted on adhesion glass slides; from tissue; host or cells: rat brain, sagittal sections (male Wistar rats)
T1 sequence (P28572 1-638): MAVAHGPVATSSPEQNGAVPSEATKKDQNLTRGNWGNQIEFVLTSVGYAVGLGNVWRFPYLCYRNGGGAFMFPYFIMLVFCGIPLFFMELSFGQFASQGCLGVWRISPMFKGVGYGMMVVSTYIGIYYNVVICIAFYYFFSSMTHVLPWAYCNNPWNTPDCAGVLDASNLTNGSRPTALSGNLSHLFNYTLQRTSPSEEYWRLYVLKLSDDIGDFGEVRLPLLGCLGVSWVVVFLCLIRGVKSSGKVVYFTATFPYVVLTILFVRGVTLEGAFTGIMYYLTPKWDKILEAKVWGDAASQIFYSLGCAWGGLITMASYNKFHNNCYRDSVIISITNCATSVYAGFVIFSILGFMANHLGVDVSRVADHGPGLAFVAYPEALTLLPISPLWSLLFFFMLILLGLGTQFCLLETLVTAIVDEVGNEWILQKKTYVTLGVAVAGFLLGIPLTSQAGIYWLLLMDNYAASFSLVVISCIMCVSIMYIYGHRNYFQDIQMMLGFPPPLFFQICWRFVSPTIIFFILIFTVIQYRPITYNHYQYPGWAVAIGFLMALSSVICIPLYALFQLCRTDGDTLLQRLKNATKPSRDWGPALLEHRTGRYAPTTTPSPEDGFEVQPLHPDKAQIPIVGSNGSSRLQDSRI
Excerpt: Autoradiographic Studies in Rat Brain
The distribution of the binding sites of [^3H][5-Methanesulfonyl-2-((S)-2,2,2-trifluoro-1-methyl-ethoxy)-phenyl]-[5-(tetrahydro-pyran-4-yl)-1,3-dihydro-isoindol-2-yl]-methanone and [^3H][2-Isopropoxy-5-methanesulfonyl-phenyl)-[5-(tetrahydro-pyran-4-yl)-1,3-dihydro-isoindol-2-yl]-methanone] was investigated in the rat brain.
Male Wistar rats were used for these experiments. Rats were sacrificed; their brains were rapidly removed, frozen in dry ice powder. Ten μm-thick sagittal sections were cut in a Cryostat and thaw-mounted on adhesion glass slides. Brain sections were first incubated for 10 min. in Ringer buffer (NaCl 120 mM, KCl 5 mM, CaCl2 2 mM, MgCl2 1 mM, Tris-HCl 50 mM pH 7.4) at 37° C. and then for 60 min. in Ringer buffer at 37° C. containing either [^3H]5-Methanesulfonyl-2-((S)-2,2,2-trifluoro-1-methyl-ethoxy)-phenyl]-[5-(tetrahydro-pyran-4-yl)-1,3-dihydro-isoindol-2-yl-methanone or [^3H]-[2-Isopropoxy-5-methanesulfonyl-phenyl)-[5-(tetrahydro-pyran-4-yl)-1,3-dihydro-isoindol-2-yl]-methanone] at concentration 1 nM. For the evaluation of the non-specific-binding (NSB) of the radiotracer an additional group of sections was incubated with Ringer buffer containing the radiotracer and the reference GlyT1 inhibitor Org 24598 at the concentration 10 μM (60 in at 37° C.). At the end of the incubation, sections were rinsed 2×5 min. and 1×15 min. in ice-cold (4° C.) Ringer buffer and then rapidly dipped three times in distilled water at 4° C. Slide-mounted brain sections were dried under a flow of cold air and exposed together with [^3H]-microscale to a Fuji Imaging plate for 5 days. […] The total amount of radiotracer bound to the brain areas of interest (TB) were measured using the MCID image analysis program and expressed as fmol of bound radiotracer/mg of protein. The amount of [^3H]5-Methanesulfonyl-2-((S)-2,2,2-trifluoro-1-methyl-ethoxy)-phenyl]-[5-(tetrahydro-pyran-4-yl)-1,3-dihydro-isoindol-2-yl]-methanone specifically bound to the GlyT1 carrier (SB) was calculated according to the formula: SB=TB−NSB.

[2] = test system: glycine transporter 1 (GlyT1); assay: In vivo PET imaging in the baboon; set-up: species or system baboon (papio anubis); details: intravenous 1 minute bolus, PET 0 to 90 minutes
Description: 1) PET imaging with [^11C-][2-Isopropoxy-5-methanesulfonyl-phenyl)-[5-(tetrahydro-pyran-4-yl)-1,3-dihydro-isoindol-2-yl]-methanone] and [^11C]-5-Methanesulfonyl-2-((S)-2,2,2-trifluoro-1-methyl-ethoxy)-phenyl]-[5-(tetrahydro-pyran-4-yl)-1,3-dihydro-isoindol-2-yl]-methanone
(§1) The experiments described below were carried out in male baboons (papio anubis). Animals were fasted for 12 hours prior to the PET study. Baboons were initially sedated intramuscularly with Ketamine hydrochloride with restraint dosages of 5-7 mg/kg to achieve a light plane of anesthesia and then maintained on continuous Propofol intravenous infusion @ […] (DIPRIVAN® Injectable Emulsion). Circulatory volume was maintained by infusion of isotonic saline. A femoral arterial catheter was inserted for blood sampling. Physiological vital signs including heart rate, ECG, blood pressure (Spacelabs Monitor, Issaquah, Wash., USA) and oxygen saturation (Nellcor OxiMax® N-600™ Pulse Oximeter, Pleasanton, Calif., USA) were continuously monitored throughout the study. The animal was positioned in an ECAT HRRT® brain PET scanner (High Resolution Research Tomograph, CPS Innovations, Inc., Knoxville, Tenn.). The head of the animal was fitted with a thermoplastic mask that was attached to a head holder for reproducible fixation. […]

[3] = test system: GlyT1 transporter; assay: PET imaging with pharmacological challenges (blocking of radiotracer uptake); assay type: in vivo, baboon (papio anubis); details: intravenous infusion 0.2 mg/kg, after 10 min 0.5 mg/kg for remainder 100 min; started 20 min before radiotracer
Description: as §1, with “fixation. A 6 min transmission scan with a 1 mCi Cs-137 point source was initially done for attenuation correction.” for “fixation.”

[4] = molecular target: T2, GlyT1 transporter (Mus musculus, UniProt P28571); assay: GlyT1 transporter inhibition in vitro (test method of WO2006/082001); assay type: cell-based; details: unlabelled compounds
T2 sequence (P28571 1-651 isoform P28571-2): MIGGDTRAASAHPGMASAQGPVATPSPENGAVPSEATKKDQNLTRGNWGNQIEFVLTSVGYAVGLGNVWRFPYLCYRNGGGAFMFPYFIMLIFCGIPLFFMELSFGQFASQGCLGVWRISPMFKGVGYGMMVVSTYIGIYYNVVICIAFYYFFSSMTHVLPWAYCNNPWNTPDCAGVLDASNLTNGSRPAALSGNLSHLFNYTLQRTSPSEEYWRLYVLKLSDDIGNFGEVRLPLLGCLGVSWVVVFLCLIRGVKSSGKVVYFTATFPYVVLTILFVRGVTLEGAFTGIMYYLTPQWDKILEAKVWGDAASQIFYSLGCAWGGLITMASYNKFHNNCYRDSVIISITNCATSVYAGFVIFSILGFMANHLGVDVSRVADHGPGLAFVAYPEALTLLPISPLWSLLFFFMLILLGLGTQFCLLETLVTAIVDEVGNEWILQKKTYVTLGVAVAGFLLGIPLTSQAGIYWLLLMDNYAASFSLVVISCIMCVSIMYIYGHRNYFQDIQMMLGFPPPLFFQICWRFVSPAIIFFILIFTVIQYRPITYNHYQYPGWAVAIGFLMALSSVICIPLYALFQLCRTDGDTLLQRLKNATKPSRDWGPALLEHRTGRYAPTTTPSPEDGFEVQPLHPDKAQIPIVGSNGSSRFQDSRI
Excerpt: The test method is described in WO2006/082001.

[5] = Preliminary pharmacokinetic experiments and modeling (blocker infusion); assay type: in vivo, baboon; details: intravenous infusion 0.2 mg/kg then 0.5 mg/kg
Description: Each animal received two sequential administrations of the radiotracer on the same day. The first administration of radiotracer was used to determine radiotracer baseline uptake. Following the baseline scan, the baboon received an intravenous administration of unlabeled [5-methanesulfonyl-2-((S)-2,2,2-trifluoro-1-methyl-ethoxy)-phenyl]-[5-(tetrahydro-pyran-4-yl)-1,3-dihydro-isoindol-2-yl]-methanone (blocker). The blocker infusion started 20 min before (the second) radiotracer injection. The blocker was first infused at dose=0.2 mg/kg. After 10 min, the flow rate was changed to deliver 0.5 mg/kg for the remainder 100 min of the study.

In the case of “[3H-methyl]-[5-Methanesulfonyl-2-((S)-2,2,2-trifluoro-1-methyl-ethoxy)-phenyl]-[5-(tetrahydro-pyran-4-yl)-1,3-dihydro-isoindol-2-yl]-methanone [Example 1]”, the “distribution of the binding sites in rat brain sections” value [1] is reported as “corresponded to the known distribution of the GlyT1 transporter”.

In the case of “[^3H-methyl]-(2-Isopropoxy-5-methanesulfonyl-phenyl)-[5-(tetrahydro-pyran-4-yl)-1,3-dihydro-isoindol-2-yl]-methanone [Example 3]”, the “distribution of the binding sites in rat brain sections” value [1] is reported as “corresponded to the known distribution of the GlyT1 transporter”.

In the case of `CC(C)Oc1ccc(S([11CH3])(=O)=O)cc1C(=O)N1Cc2ccc(C3CCOCC3)cc2C1` [Example 4, [^11C-methyl]-(2-Isopropoxy-5-methanesulfonyl-phenyl)-[5-(tetrahydro-pyran-4-yl)-1,3-dihydro-isoindol-2-yl]-methanone], the “brain uptake of radiotracer” value [2] is reported as “rapidly taken up in multiple brain areas”.

With `C[C@H](Oc1ccc(S(C)(=O)=O)cc1C(=O)N1Cc2ccc(C3CCOCC3)cc2C1)C(F)(F)F` [[5-methanesulfonyl-2-((S)-2,2,2-trifluoro-1-methyl-ethoxy)-phenyl]-[5-(tetrahydro-pyran-4-yl)-1,3-dihydro-isoindol-2-yl]-methanone] the “effect of pretreatment with cold blocker on specific uptake of both [11C] radiotracers in brain” value [3] was “completely blocked the specific uptake”, the IC50 [4] was 28 nM and the “plasma levels during the PET scan time interval” value [5] was “constant plasma levels”.

With `CC(C)Oc1ccc(S(C)(=O)=O)cc1C(=O)N1Cc2ccc(C3CCOCC3)cc2C1` [(2-isopropoxy-5-methanesulfonyl-phenyl)-[5-(tetrahydro-pyran-4-yl)-1,3-dihydro-isoindol-2-yl]-methanone] the IC50 [4] was 14 nM.

In the case of `C[C@H](Oc1ccc(S([11CH3])(=O)=O)cc1C(=O)N1Cc2ccc(C3CCOCC3)cc2C1)C(F)(F)F` [Example 2, [^11C-methyl]-[5-Methanesulfonyl-2-((S)-2,2,2-trifluoro-1-methyl-ethoxy)-phenyl]-[5-(tetrahydro-pyran-4-yl)-1,3-dihydro-isoindol-2-yl]-methanone], the “brain uptake of radiotracer” value [2] is reported as “rapidly taken up in multiple brain areas”.

For `CN(CC[C@@H](Oc1ccc(C(F)(F)F)cc1)c1ccccc1)CC(=O)O` [Org 24598], the “effect of co-incubation on binding of both [3H] radiotracers to rat brain sections” value ([1]; high concentrations of inhibitor (Org 24598 10 μM), radiotracers 1 nM) was “completely abolished binding”.

From patent US8153679B2, “Radiolabelled inhibitors of the glycine 1 transporter” (Hoffmann-La Roche Inc., priority 2008, dated 2012)
